Patent US20070142437A1, “CHEMICAL COMPOUNDS” (priority 2005, published 2007)

Experiments:
Type in all cases: biochemical
CDK2 = biological target: T1, CDK2 (Homo sapiens, UniProt P24941); experiment: CDK2 substrate phosphorylation assay (biotinylated peptide, 32P-ATP); details: Inhibition of CDK2
T1 construct: made in house
Experimental: (§1) The compounds of the present invention have valuable pharmacologic properties. Different compounds from this class are particularly effective at inhibiting CDK2 and/or CDK4 enzymes at concentrations, which range from 0.0001 to 1 μM and additionally show specificity relative to other kinases. Substrate phosphorylation assays were carried out as follows:
Cyclin dependent protein kinase 2 assays utilized the peptide Biotin-aminohexyl-ARRPMSPKKKA-NH2 as phosphoryl group acceptor. CDK2 was expressed utilizing a baculovirus expression system and was partially purified to comprise 20-80% of total protein, with no detectable competing reactions present. Typically, assays were performed by incubating enzyme (0.2-10 nM), with and without inhibitor, peptide substrate (1-10 nM), [g-^32P]ATP (1-20 nM), and 10-20 mM Mg^2+ for periods of time generally within the range 10-120 minutes. Reactions were terminated with 0.2-2 volumes of either 20% acetic acid or 50-100 mM EDTA buffered to pH 7 (substrate consumption <20%). The buffer employed in enzyme assay was 100 mM HEPES pH 7.5 containing 0.1 mg/mL BSA and 5% DMSO. Inhibitors were diluted in 100% DMSO prior to addition into the assay. Detection of peptide phosphorylation was accomplished by scintillation counting following either collection of peptide onto phosphocellulose filters (for reactions stopped with acetic acid), collection of peptide in wells of 96 well plates coated with Streptavidin (Pierce) (reactions were stopped with EDTA), or addition of Avidin coated Scintillant impregnated beads (Scintillation Proximity Assays from Amersham, reactions were stopped with EDTA). Counts detected by any of these methodologies minus the appropriate background (assays with additional 40 mM EDTA or lacking peptide substrate) were assumed to be proportional to the reaction initial rates, and IC50s were determined by a least squares fit to the equation CPM=Vmax*(1−([I]/(K+[I])))+nsb, or −pIC50s were determined by a fit to the equation CPM=nsb+(Vmax−nsb)/(1+(x/10^x−pIC50)), where nsb are the background counts. Filters are washed four times with 75 mM phosphoric acid. Radioactivity was determined by liquid scintillation counting.

CDK4 = biological target: T2, CDK4 (Homo sapiens, UniProt P11802); experiment: CDK4 substrate phosphorylation assay (Rb protein, 33P-ATP); details: Inhibition of CDK4
T2 construct: made in house
T2 sequence (P11802 whole entry, species assumed): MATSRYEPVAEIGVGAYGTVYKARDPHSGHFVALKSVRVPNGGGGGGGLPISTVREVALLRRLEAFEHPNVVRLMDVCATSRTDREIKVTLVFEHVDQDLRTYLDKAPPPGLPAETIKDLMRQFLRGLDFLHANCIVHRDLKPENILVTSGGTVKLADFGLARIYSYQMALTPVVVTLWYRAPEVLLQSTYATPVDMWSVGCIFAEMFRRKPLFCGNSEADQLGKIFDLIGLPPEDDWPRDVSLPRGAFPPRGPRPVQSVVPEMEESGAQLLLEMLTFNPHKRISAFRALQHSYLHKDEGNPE
T2 sequence (P24385 whole entry partner, species assumed): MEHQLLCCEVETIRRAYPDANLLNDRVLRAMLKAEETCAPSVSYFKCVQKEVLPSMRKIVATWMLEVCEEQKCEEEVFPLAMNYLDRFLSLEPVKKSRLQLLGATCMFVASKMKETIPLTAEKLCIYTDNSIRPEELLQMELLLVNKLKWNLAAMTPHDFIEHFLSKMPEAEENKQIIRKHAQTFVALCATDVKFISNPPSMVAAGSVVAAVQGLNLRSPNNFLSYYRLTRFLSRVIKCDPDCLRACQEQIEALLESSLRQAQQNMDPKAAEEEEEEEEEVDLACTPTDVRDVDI
Experimental: as §1
Cyclin D1 and cyclin-dependent kinase 4 were expressed utilizing a baculovirus expression system. The catalytic activity of CDK4 protein was assayed by measuring the phosphorylation of Rb protein. A truncated Rb protein (residues 773-928 of the native retinoblastoma protein, fused to glutathione S-transferase to facilitate purification) was used as the phosphoryl acceptor. The assay conditions were 100 mM HEPES (N-[2-hydroxyethyl]piperzine-N′-[2-ethanesulfonic acid]), pH 7.5, 0.5 μM GST-Rb protein, 1 μCi/mL [^33P]-ATP (1 nM-20 μM), 5-20 mM MgCl2, 2.5 mM EDTA, 1 mM dithiotheitol, 0.2 mg/mL bovine serum albumin, 2% (v/v) dimethyl sulfoxide (DMSO), CDK4 enzyme (5-50 nM) in a final volume of 50 μL. Reactions were incubated for time periods of 10-60 min at 30° C. and terminated by the addition of 50 μL quench (1 mM ATP/100 mM EDTA, pH 7.0). Detection of protein phosphorylation was accomplished by scintillation counting following collection of protein in 96 well plates coated with Glutathione or trapping of protein onto phosphocellulose filters. Counts detected by these methodologies minus the appropriate background were assumed to be proportional to the reaction initial rates. IC50 values were determined by measuring enzyme activity in the presence of different inhibitor concentrations (0.1 nM to 50 μM). IC50s were determined by a least squares fit to the equation CPM=Vmax*(1−([I]/(K+[I])))+nsb, or pIC50s were determined by a fit to the equation CPM=nsb+(Vmax−nsb)/(1+(x/10^x−pIC50)), where nsb are the background counts.

hVEGFR2 = hVEGFR2 (Homo sapiens, UniProt P35968); experiment: VEGFR2 HTRF assay; details: Inhibition of VEGFR2
Chain of hVEGFR2 (P35968 20-1356): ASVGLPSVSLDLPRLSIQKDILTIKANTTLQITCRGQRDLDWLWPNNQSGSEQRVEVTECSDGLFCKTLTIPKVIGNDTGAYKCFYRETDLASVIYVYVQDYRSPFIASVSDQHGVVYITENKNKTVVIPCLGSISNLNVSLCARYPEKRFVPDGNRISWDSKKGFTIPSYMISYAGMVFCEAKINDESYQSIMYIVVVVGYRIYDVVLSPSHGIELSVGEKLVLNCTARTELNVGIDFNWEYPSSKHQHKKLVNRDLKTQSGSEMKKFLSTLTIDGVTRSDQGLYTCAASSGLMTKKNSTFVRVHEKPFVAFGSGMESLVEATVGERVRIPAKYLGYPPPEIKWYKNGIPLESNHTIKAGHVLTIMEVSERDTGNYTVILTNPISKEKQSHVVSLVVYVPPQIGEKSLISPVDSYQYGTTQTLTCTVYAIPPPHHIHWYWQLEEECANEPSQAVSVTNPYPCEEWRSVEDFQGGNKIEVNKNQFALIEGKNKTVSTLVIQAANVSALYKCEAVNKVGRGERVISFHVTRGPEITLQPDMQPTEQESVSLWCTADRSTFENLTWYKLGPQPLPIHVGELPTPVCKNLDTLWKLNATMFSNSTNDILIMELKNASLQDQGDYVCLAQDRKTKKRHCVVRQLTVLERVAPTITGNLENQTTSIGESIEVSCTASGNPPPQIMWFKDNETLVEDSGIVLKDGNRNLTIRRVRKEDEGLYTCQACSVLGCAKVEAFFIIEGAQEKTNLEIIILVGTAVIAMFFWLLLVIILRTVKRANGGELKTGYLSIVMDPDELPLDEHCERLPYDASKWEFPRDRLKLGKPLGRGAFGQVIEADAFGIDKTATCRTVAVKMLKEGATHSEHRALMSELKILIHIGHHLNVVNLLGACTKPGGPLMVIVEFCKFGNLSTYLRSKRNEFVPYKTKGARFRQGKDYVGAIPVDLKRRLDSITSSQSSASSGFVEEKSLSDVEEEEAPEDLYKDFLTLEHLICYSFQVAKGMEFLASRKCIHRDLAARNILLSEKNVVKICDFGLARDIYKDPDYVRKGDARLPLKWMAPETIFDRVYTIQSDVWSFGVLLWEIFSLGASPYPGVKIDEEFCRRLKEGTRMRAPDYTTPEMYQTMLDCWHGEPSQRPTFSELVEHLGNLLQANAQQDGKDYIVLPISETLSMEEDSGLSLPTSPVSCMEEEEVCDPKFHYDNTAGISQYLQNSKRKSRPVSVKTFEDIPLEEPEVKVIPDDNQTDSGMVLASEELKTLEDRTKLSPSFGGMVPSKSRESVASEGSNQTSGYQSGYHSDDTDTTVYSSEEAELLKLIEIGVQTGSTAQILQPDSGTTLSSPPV
Experimental: The compounds of the present invention elicit important and measurable pharmacological responses. Different compounds from this class are particularly effective at inhibiting VEGFR2 enzymes, as described by the VEGFR2 HTRF assay below, at concentrations, which range from 0.0001 to 1 μM.
The assays were performed in 96-well black plates. 10 nM hVEGFR2 was used to phosphorylate 0.36 μM peptide (Biotin-Ahx-EEEEYFELVAKKKK) in the presence of 75 μM ATP, 5 mM MgCl2, 0.3 mM DTT, 0.1 mg/ml BSA, and 0.1 M HEPES (pH 7.5). 10 μl 0.5 M EDTA was added to reactions as negative controls. The 50 μl kinase reaction with or without inhibitors in 5% DMSO was carried out at room temperature for 45 minutes, then stopped by 40 μl of 125 mM EDTA. 2.4 μg/ml Streptavidin-APC and 0.15 μg/ml Eu-α-pY, in the presence of 0.1 mg/ml BSA, 0.1 M HEPES (pH7.5), were added to a final volume of 140 μl. The plate was incubated for 10 min at room temperature (22° C.) and read on the Victor with the time resolved fluorescence mode by exciting at 340 nm and reading the emission at 665 nm.
• Peptide from Synpep (Dublin, Calif.) • ATP, MgCl2, DTT, BSA, HEPES, EDTA, DMSO from Sigma Streptavidin-APC from Molecular Probes (Eugene, Oreg.) • Eu-α-pY from EG&G Wallac (Gaithersburg, Md.)

SMILES | IC50 (CDK2) [nM] | IC50 (CDK4) [nM] | IC50 (hVEGFR2) [nM]
COc1cccc(-c2cnc(Nc3ccccc3)o2)c1 [Example 1, 5-(3-methoxyphenyl)-N-phenyl-1,3-oxazol-2-amine] | < 1000 | < 1000 | < 10000
Oc1cccc(-c2cnc(Nc3ccccc3)o2)c1 [Example 2, 3-(2-anilino-1,3-oxazol-5-yl)phenol] | < 1000 | < 1000 | < 1000
CN1CCN(c2ccc(Nc3ncc(-c4ccccc4)o3)cc2)CC1 [Example 3, N-[4-(4-methylpiperazin-1-yl)phenyl]-5-phenyl-1,3-oxazol-2-amine] | < 10000 | < 1000 | < 1000
CCN1CCN(c2ccc(Nc3ncc(-c4ccccc4)o3)cc2)CC1 [Example 7, N-[4-(4-Ethylpiperazin-1-yl)phenyl]-5-phenyl-1,3-oxazol-2-amine] | < 10000 | < 1000 | < 1000
c1ccc(-c2cnc(Nc3ccc(CN4CCOCC4)cc3)o2)cc1 [Example 8, N-[4-(Morpholin-4-ylmethyl)phenyl]-5-phenyl-1,3-oxazol-2-amine] | < 10000 | < 1000 | < 1000
COc1cccc(-c2cnc(Nc3ccc(N4CCOCC4)cc3)o2)c1 [Example 9, 5-(3-Methoxyphenyl)-N-(4-morpholin-4-ylphenyl)-1,3-oxazol-2-amine] | < 1000 | < 1000 | < 1000
COc1cccc(-c2cnc(Nc3ccc(N4CCCCC4)cc3)o2)c1 [Example 10, 5-(3-Methoxyphenyl)-N-(4-piperidin-1-ylphenyl)-1,3-oxazol-2-amine] | – | < 10000 | < 1000
COc1cccc(-c2cnc(Nc3ccc(CN4CCOCC4)cc3)o2)c1 [Example 11, 5-(3-Methoxyphenyl)-N-[4-(morpholin-4-ylmethyl)phenyl]-1,3-oxazol-2-amine] | < 1000 | < 1000 | < 1000
CC(C)COc1cccc(-c2cnc(Nc3ccc(N4CCN(C)CC4)cc3)o2)c1 [Example 14, 5-(3-Isobutoxyphenyl)-N-[4-(4-methylpiperazin-1-yl)phenyl]-1,3-oxazol-2-amine] | < 1000 | < 100 | < 1000
COc1cccc(-c2cnc(Nc3ccc(-n4ccnc4)nc3)o2)c1 [Example 32, 6-(1H-imidazol-1-yl)-N-[5-(3-methoxyphenyl)-1,3-oxazol-2-yl]pyridin-3-amine] | – | < 10000 | –
COc1cccc(-c2cnc(Nc3ccc(N4CCCCC4)nc3)o2)c1 [Example 33, N-[5-(3-methoxyphenyl)-1,3-oxazol-2-yl]-6-piperdin-1-ylpyridin-3-amine] | – | < 10000 | –
CN(C)Cc1ccc(Nc2ncc(-c3cccc(OC4CCCC4)c3)o2)cc1 [Example 41, 5-[3-(cyclopentyloxy)phenyl]-N-{4-[(dimethylamino)methyl]phenyl}-1,3-oxazol-2-amine] | – | < 100 | < 1000
CCCN1CCC(c2csc(Nc3ncc(-c4cccc(OC)c4)o3)n2)CC1 [Example 49, 5-(3-methoxyphenyl)-N-[4-(1-propylpiperidin-4-yl)-1,3-thiazol-2-yl]-1,3-oxazol-2-amine] | – | < 1000 | –

The remaining lines, values ahead:

IC50 (CDK2) [nM] | IC50 (CDK4) [nM] | IC50 (hVEGFR2) [nM] | SMILES
< 1000 | < 100 | < 1000 | COc1cccc(-c2cnc(Nc3ccc(N4CCN(C)CC4)cc3)o2)c1 [Example 4, 5-(3-Methoxyphenyl)-N-[4-(4-methylpiperazin-1-yl)phenyl]-1,3-oxazol-2-amine]
< 1000 | < 100 | < 1000 | CCOc1cccc(-c2cnc(Nc3ccc(N4CCN(C)CC4)cc3)o2)c1 [Example 5, 5-(3-Ethoxyphenyl)-N-[4-(4-methylpiperazin-1-yl)phenyl]-1,3-oxazol-2-amine]
< 1000 | < 100 | < 1000 | CCN1CCN(c2ccc(Nc3ncc(-c4cccc(OC)c4)o3)cc2)CC1 [Example 6, N-[4-(4-Ethylpiperazin-1-yl)phenyl]-5-(3-methoxyphenyl)-1,3-oxazol-2-amine]
< 100 | < 100 | < 1000 | CC(C)Oc1cccc(-c2cnc(Nc3ccc(N4CCN(C)CC4)cc3)o2)c1 [Example 12, 5-(3-Isopropoxyphenyl)-N-[4-(4-methylpiperazin-1-yl)phenyl]-1,3-oxazol-Z -amine]
< 100 | < 100 | < 100 | CN1CCN(c2ccc(Nc3ncc(-c4cccc(OC5CCCC5)c4)o3)cc2)CC1 [Example 13, 5-[3-(cyclopentyloxy)phenyl]-N-[4-(4-methylpiperazin-1-yl)phenyl]-1,3-oxazol-2-amine]
< 1000 | < 100 | < 1000 | CN1CCN(c2ccc(Nc3ncc(-c4cccc(OCc5ccccc5)c4)o3)cc2)CC1 [Example 15, 5-[3-(Benzyloxy)phenyl]-N-[4-(4-methylpiperazin-1-yl)phenyl]-1,3-oxazol-2-amine]
< 100 | < 100 | < 1000 | C=C(C)COc1cccc(-c2cnc(Nc3ccc(N4CCN(C)CC4)cc3)o2)c1 [Example 16, N-[4-(4-methylpiperazin-1-yl)phenyl]-5-{3-[(2-methylprop-2-enyl)oxy]phenyl}-1,3-oxazol-2-amine]
< 1000 | < 100 | < 100 | CCCOc1cccc(-c2cnc(Nc3ccc(N4CCN(C)CC4)cc3)o2)c1 [Example 17, N-[4-(4-methylpiperazin-1-yl)phenyl]-5-(3-propoxyphenyl)-1,3-oxazol-2-amine]
< 100 | < 100 | < 1000 | CN1CCN(c2ccc(Nc3ncc(-c4cccc(OC5CCCCC5)c4)o3)cc2)CC1 [Example 18, 5-[3-(cyclohexyloxy)phenyl]-N-[4-(4-methylpiperazin-1-yl)phenyl]-1,3-oxazol-2-amine]
< 1000 | < 100 | < 1000 | COc1cccc(-c2cnc(Nc3ccc(N4CCN(C)CC4)c(Cl)c3)o2)c1 [Example 19, N-[3-chloro-4-(4-methylpiperazin-1-yl)phenyl]-5-(3-methoxyphenyl)-1,3-oxazol-2-amine]
– | < 100 | < 1000 | CN1CCN(c2ccc(Nc3ncc(-c4cccc(O)c4)o3)cc2)CC1 [Example 29, 3-(2-{[4-(4-methylpiperazin-1-yl)phenyl]amino}-1,3-oxazol-5-yl)phenol]
